Patent US8858995B2, “Methods and compositions for controlled delivery of phytochemical agents” (priority 2008, dated 2014)
Values joined by “and” are separate entries in the source; they are usually repeats but may differ in a detail not shown here. Identical values can stand only once.

Legend:
[1] = mouse, sc
Protocol: To assess the coated implants (i.e., where the compositions were in the form of coatings), in vivo studies were also performed. […] All groups of animals were also treated with dibenzo[a,I]pyrene (DBP) via polymeric implants (1-cm, 1.4 mm dia, 5% DBP load) at the same time. Implants were grafted subcutaneously, and animal were euthanized after 3 weeks. […] In both cases, animals were euthanized by CO2 asphyxiation and selected tissues (lung, liver and brain) were collected and stored at −80° C. until processing. Implants were also recovered, dried under vacuum and stored in amber vials under argon at 4° C. until analysis.
The supernatants were diluted with ethanol:DCM (80:20) and their concentrations were measured spectrophotometrically at maximal absorbance and the concentrations were calculated against standard curves of individual compounds.

[2] = Lung and liver curcumin levels after subcutaneous implantation of curcumin matrices; format: in vivo, Sprague-Dawley rats
[3] = Effect of phytochemical agent load on in vitro release; format: physicochemical; details: curcumin 2, 5, 20% w/w, GTPs 1, 2.5, 5, 10% w/w
Protocol: The medium was replaced daily and the amount of curcumin released from each composition per day was measured spectrophotometrically against a standard curve and expressed as μg/day. A similar experiment was also performed to examine the effect of incorporating various amounts of GTPs into a biocompatible polymeric matrix on the in vitro release of the agents.

[4] = In vitro release of curcumin from PCL-121K:PEG-8K (65:35) implants; format: physicochemical
Protocol: Both solutions were then mixed together to prepare a homogenous solution of drug and polymers. The solvents were evaporated on a water bath maintained at 65° C. followed by overnight drying under vacuum at 65° C. to remove residual solvents to prepare an amorphous molecular dispersion of drug in polymer. The dried molten polymer was then extruded through silastic tubing mold (internal diameter 3.4 mm) attached to a syringe. After a few minutes, the cylindrical implants were removed from the tubing and excised into desired lengths (2.0 cm, 200 mg containing 40 mg drug) and stored at −20° C. under argon until used.
PBS was supplemented with BCS (10% v/v) to mimic extracellular fluid composition and to simulate the in vivo situation. Amber-colored vials (n=3) containing a 2-cm implant each were incubated at 37±0.5° C. in a reciprocating (150 rpm) shaker water bath (Julabo S W23, Seelbach, Germany), and the release medium was changed after every 24 h.

[5] = In vitro release from coated (and extruded) polymeric implants; format: physicochemical; details: 37° C., no serum
Protocol: To formulate the “coated” polymeric implants, blank P-80 implants (1.4 mm dia) were then prepared by dissolving P-80:F68 (9:1) in dichloromethane, followed by evaporation of the solvent in a Petri dish under hood and extrusion of the molten polymer through a silastic tubing mold, similar to the methodologies described herein above. […] For coating, one end of the blank implant (2.5-3.5 cm) was inserted into a silastic tube plug (6 mm long, 1.4 mm dia) while the other end of the plug was attached with a pipet tip. Coatings were then added by dipping the blank implant into the solution with intermittent drying with cool air using a commercial hair dryer and placing them under hood. […] The assembly was placed under hood overnight to remove the residual DCM, implants were excised in 1 or 2 cm lengths and stored in amber vials under argon at -20° C. until used. The rate of in vitro release for the implants was subsequently measured. […] The vials were placed in a water bath (Julabo S W 23, Seelback, Germany) at 37° C. with constant agitation at 110 rpm. The medium was changed every 24 h.

[6] = Plasma, liver and brain curcumin levels, implants versus diet (HPLC-fluorescence); format: in vivo, ACI rats; details: for plasma curcumin level: curcumin diet
Excerpt: The in vivo cumulative release was studied in female Augustus Copenhagen Irish (ACI) rats following an approved protocol from an Institutional Animal Care and Use Committee (IACUC). […] All the animals were provided food and water ad libitum. Sham and curcumin implants were subcutaneously grafted at the back of the rats and were monitored for their diet intake and body weight. Animals were euthanized at different time intervals by asphyxiation to collect blood, liver, brain, local tissues and implants. All the tissues were snap frozen in liquid nitrogen and stored at −80° C. until further analysis.
Plasma pooled from all the animals (1.5 ml) was mixed with […] of 0.5 M sodium acetate to reduce the pH to 5. Plasma was then extracted three times with 3 ml ethyl acetate. Ethyl acetate extracts were pooled and dried under vacuum. The dried residue was reconstituted in 100 μl of acetonitrile, and one-half of the solution was analyzed by HPLC. Similarly, liver or brain tissue (approximately 500 mg) from each animal was homogenized in 3 ml PBS (pH 7.4) containing 200 μl sodium acetate (0.5 M). The homogenate was then extracted twice with two volumes of ethyl acetate. After evaporation of ethyl acetate under vacuum, the residue was reconstituted in 1 ml acetonitrile. The solution was filtered through 0.45 μm glass-microfiber filter and evaporated again under vacuum. The residue was finally reconstituted in 100 μl acetonitrile, and one-half of it was analyzed by HPLC using a Shimadzu liquid chromatography system equipped with LC-10ADVP pump, RF-10AXL fluorescence detector and a Shimadzu C18 column of 5 μm particles (250×4.6 mm). The three curcuminoids were separated by using acetonitrile and 1% citric acid (adjusted to pH 2.5) at a flow rate of 1 ml/min with a gradient elution in which acetonitrile concentration was increased from 0% to 30% in first 5 min, followed by an increase to 45% in next 5-20 min. Acetonitrile was then maintained at this ratio till 36 min. Curcuminoids were detected using 410 and 500 nm as excitation and emission maxima, respectively, in the fluorescence detector.

[7] = Toxicity of coated implants (body weight, hematology, liver and kidney function); format: in vivo, A/J mice
Protocol: To assess the toxicity of the implants, blood was collected separately at the time of euthanasia and hematological parameters were analyzed using whole blood by Cell Dyn 3500 hematology analyzer (Abbott laboratories, Santa Clara, Calif.). Serum was used to analyze the liver and kidney function test. An ion selective electrode was used for various electrolytes analysis and in-built spectrophotometric techniques were used for all other biochemical parameters analysis on automated AU640 Chemistry analyzed (Beckman Coulter, Inc., Brea, Calif.).

[8] = female, ACI (Augustus Copenhagen Irish), rat, plasma, oral, 1000 ppm in diet

total release in vivo at the end of 3 weeks [1]: 19.9%
concentration at 4 days ([2]; Sprague-Dawley, rat, liver, subcutaneous, 20 % w/w curcumin in two 2-cm polymeric matrices, implants 20% w/w, 4 days): ~40 ng/g
concentration at 7 days ([2]; Sprague-Dawley, rat, liver, subcutaneous, 20 % w/w curcumin in two 2-cm polymeric matrices, implants 20% w/w, 7 days): ~5 ng/g
concentration at 4 days ([2]; Sprague-Dawley, rat, lung, sc, 20 % w/w curcumin in two 2-cm polymeric matrices): ~15 ng/g
curcumin level in lung tissue ([2]; implants 20% w/w, after 7 days, maintained at 13 and 21 days): approximately 5 ng/g
curcumin level in liver tissue ([2]; implants 20% w/w, during the next 30 days): about 2.5 ng/g
amount released per day and total amount released versus amount incorporated [3]: varied proportionally
curcumin release after 1 week [4]: approximately 200 μg/day
curcumin release after 31 days [4]: approximately 120 μg/day
curcumin release on day 2 [4]: approximately 390 μg
cumulative release after 1 month ([4]; 40 mg per implant): approximately 15 % of total agent load
curcumin release on day 1 ([4]; 2-cm implant, 40 mg): approximately 570 μg
release in PBS alone [5]: essentially no release
liver curcumin level ([6]; both routes (implants, diet), day 1): 25 to 30 ng
liver curcumin level ([6]; both routes, after 12 days): 10 to 15 ng
plasma curcumin level ([6]; 25 and 90 days): undetectable
plasma curcumin level ([6]; day 1): not observed
brain curcumin level ([6]; dietary administration 1000 ppm, all the time points): 2 to 3 ng/g
concentration at 1 day ([6]; female, ACI (Augustus Copenhagen Irish), rat, brain, subcutaneous, 2 2-cm curcumin implants, implant route, day 1): 30 ± 7.3 ng/g
Kp ([6]; female, ACI (Augustus Copenhagen Irish), rat, liver (against plasma), other: both routes (subcutaneous implants, diet), via both routes): 10 to 20
concentration at 4 day [6, 8]: 0.3 ng/mL and 0.815 nM
concentration at 12 days [6, 8]: 0.543 nM and 0.2 ng/mL
concentration at 3 months ([6]; female, ACI (Augustus Copenhagen Irish), rat, plasma, subcutaneous, 2 2-cm curcumin implants, implants, after 3 months): ~0.2 ng/mL and 0.543 nM
concentration at 1 day ([6]; female, ACI (Augustus Copenhagen Irish), rat, plasma, subcutaneous, 2 2-cm curcumin implants, implants, day 1): 9 nM
concentration at 4 day ([6]; female, ACI (Augustus Copenhagen Irish), rat, plasma, subcutaneous, 2 2-cm curcumin implants, implants, day 4): 1.4 ng/mL and 4 nM
concentration at 1 day ([6]; female, ACI (Augustus Copenhagen Irish), rat, subcutaneous, 2 2-cm curcumin implants, implants (two 2-cm), day 1, pooled plasma): 3.3 ng/mL
brain curcumin level ([6]; implant route, after 12 days, same levels after 90 days): around 7.26±2.45 ng/g tissue
curcumin concentration in brain tissue, implant route higher than diet ([6]; rat, in vivo): approximately 3.5 fold
plasma and liver concentrations observed in the in vivo study ([6]; rat, in vivo): 78 to 95 nM
Structure (SMILES): COc1cc(/C=C/C(=O)CC(=O)/C=C/c2ccc(O)c(OC)c2)ccc1O [curcumin]
hematological parameters, liver enzymes, biochemical parameters of kidney function versus sham implant ([7]; 3 weeks after grafting): No significant differences
body weight ([7]; s.c. polymeric implants): no effect on the body weight
